The values that follow come from publication PMC10732398 (PLOS Pathogens, 2023).

The assay deals with ⍺4β7. The assay is described as follows: SPR binding kinetics: recombinant ⍺4β7 passed over ligand-coated surfaces (S1 Table). The conditions noted are these: SPR Biacore 3000, ligand immobilized, ⍺4β7 analyte, HBS pH 7.4, 1 mM MnCl2, 25°C. As to the method:
To measure the specific affinity of CD4–⍺4β7 interactions we developed a surface plasmon resonance (SPR) -based assay in which recombinant ⍺4β7 was passed over a surface coated with a 23 kD D1D2 protein (aa 1–183). For comparison we prepared surfaces with recombinant MAdCAM-Ig, VCAM-Ig, monomeric gp120, and a SOSIP env trimer (S1 Table). Assays were carried out in the presence of MnCl2 to present ⍺4β7 in an active conformation. […] This rate of dissociation was similar to that of both MAdCAM-Ig and VCAM-Ig with ⍺4β7 and is indicative of a relatively high-affinity interaction.
Experiments were performed using a Biacore 3000 instrument (Cytiva Life Sciences) using CM4 or CM5 sensor chips. The data were evaluated using BIAevaluation 4.1.1 software (Cytiva Life Sciences). The chip surface was activated by injecting 35 μl of a 1:1 mixture of 0.05 M N-hydroxysuccinimide and 0.2 M N-ethyl-N-(dimethylaminopropyl) carbodiimide at 5 μl/min. NeutrAvidin, HIV gp120, sCD4 (D1D2) or Hu-MAdCAM-Ig (R&D Systems) at concentrations of 5 μg/ml in 10mM NaOAc, pH 4.5, were immobilized to 250–750 resonance units (RU). After the proteins were immobilized to the desired densities, unreacted sites were blocked with 35 μl of 1 M Tris-HCl (pH 8.0). Biotinylated cyclic V2 peptides (1 μg/ml in 20 mM Tris-HCl, pH 8.0) were bound to the NeutrAvidin surfaces to densities of approximately 250–300 RU. One surface was activated and blocked without ligand as a control surface for non-specific binding. Signal from the control surface was subsequently subtracted. Running buffer was HBS (pH 7.4), 1 mM MnCl2, 0.005% Tween- 20, 0.05% soluble carboxymethyl-dextran. Binding experiments were carried out at a flow rate of 25 μl/min at 25°C. After a 2 min injection, the surface was washed for an additional 2 min in running buffer allowing dissociation of the bound ligand from the surface. The surfaces were regenerated by multiple injections of 4.5 M MgCl2 at a flow rate of 100 μl/min. Inhibition of ⍺4β7 binding by linear V2-loop and CD4 derived peptides was carried out by pre-incubating ⍺4β7 with the peptides in running buffer at the indicated concentrations for 2 hours at room temperature prior to passing them over the prepared surfaces as described above. Cross-inhibition experiments were performed by passing either buffer or the listed analytes over a surface to which sCD4 (D1D2) had been immobilized, followed by a secondary sequential injection of ⍺4β7. The ability of each analyte to inhibit either itself or ⍺4β7 was determined by comparing the binding of ⍺4β7 in the absence or presence of the listed pre-bound analytes as previously described. Illustration of the dynamic range of range of linear peptide inhibition assays is provided in S4 Fig.

As to “MAdCAM-Ig: recombinant MAdCAM-1 Ig fusion, R&D Systems [reference compound]”, the KA was determined as 1.12e+08 M⁻¹, the ka came to 96700 M⁻¹ s⁻¹ and the kd stood at 0.000863 s⁻¹.
